Assay [1] has as its system Dopamine Aptamer (DNA, aptamer) CGACGCCAGTTTGAAGGTTCGTTCGCAGGTGTGGAGTGACGTCG
In words: T5 Exo/Exo I digestion, SYBR Gold fluorescence. The settings on record: 140 mM Na+, 4 mM K+, 2 mM Mg2+; 10 mM phosphate pH 7.4, 25 °C; 200 μM ligand.

Assay [2] concerns MMC1 (DNA, aptamer) CTTACGACCAGGGTTGGTTTCATCGGTGGTGTAATATGGTCGTAAG
The assay can be described thus: ITC. The settings on record: 20 mM Na+, 0.5 mM Mg2+.

Assay [3] has as its system MA-46 (MA) (DNA, aptamer) CTTACGACTCAGGCATTTTGCCGGGTAACGAAGTTACTGTCGTAAG
In words: ITC. The settings on record: 20 mM Na+, 5 mM Mg2+.

Assay [4] concerns SCA2.1 (DNA, aptamer) CTTACGACCTTAAGTGGGGTTCGGGTGGAGTTTATGGGGTCGTAAG
In words: ITC. The note with it: 20 mM Na+, 0.5 mM Mg2+; 10 mM Tris-HCl pH 7.4, 23 °C; one-site model.

Assay [5] deals with Dopamine Aptamer (DNA, aptamer) CGACGCCAGTTTGAAGGTTCGTTCGCAGGTGTGGAGTGACGTCG
The settings on record: 140 mM Na+, 4 mM K+, 2 mM Mg2+; 10 mM phosphate pH 7.4, 25 °C; 200 μM ligand.

The subject of assay [6] is ATP-28 (DNA, aptamer) CTGGGGGAGTATTGCGGAGGAAGGTGCG
The assay can be described thus: ITC. The note with it: 10 mM Mg2+; 10 mM Tris-HCl pH 7.4, 23 °C; sequential model, site 1 of 2.

Assay [7] relates to ATP-33 (DNA, aptamer) CGCACCTGGGGGAGTATTGCGGAGGAAGGTGCG
In words: T5 Exo digestion, PAGE. The settings on record: 10 mM Mg2+; 10 mM Tris-HCl pH 7.4, 25 °C; 250 μM ligand.

In assay [8] the test system is SCA2.1 (DNA, aptamer) CTTACGACCTTAAGTGGGGTTCGGGTGGAGTTTATGGGGTCGTAAG
The note with it: 20 mM Na+, 0.5 mM Mg2+; 10 mM Tris-HCl pH 7.4, 25 °C; 50 μM ligand.

In assay [9] the test system is MMC2 (DNA, aptamer) CTTACGACCAGGGTTGGTCTCATCGGTGGTGTAATATGGTCGTAAG
The assay can be described thus: continuous-injection ITC and exonuclease assay. The settings on record: 20 mM Na+, 0.5 mM Mg2+.

The subject of assay [10] is MMC3 (DNA, aptamer) CTTACGGCCAGGGTTGGTCTCATCGGTGGTGTAATATGGTCGTAAG
In words: continuous-injection ITC and exonuclease assay. The settings on record: 20 mM Na+, 0.5 mM Mg2+.

In assay [11] the test system is MMC5 (DNA, aptamer) CTTACCGACTATATGGGCAGTATCGTCTAGTGCCTAAGGGTCGTAAG
The assay can be described thus: continuous-injection ITC and exonuclease assay. The settings on record: 20 mM Na+, 0.5 mM Mg2+; 10 mM Tris-HCl pH 7.4, 23 °C; 1000 μM ligand in syringe; very weak or no binding.

The subject of assay [12] is MMC1-42 (DNA, aptamer) CGACCAGGGTTGGTTTCATCGGTGGTGTAATATGGTCGTAAG
In words: ITC. The note with it: 20 mM Na+, 0.5 mM Mg2+; 10 mM Tris-HCl pH 7.4, 23 °C; one-site fit, half racemate concentration stated for MMC1 titrations.

Assay [13] deals with MMC4 (DNA, aptamer) CTTACGAAGCAGGTGGGTAGGATAGTGTGTGTGCTGTCGTCGTAAG
The assay can be described thus: continuous-injection ITC and exonuclease assay. The settings on record: 20 mM Na+, 0.5 mM Mg2+.

Assay [14] has as its system MMC1-Mutant (DNA, aptamer) CTTACGACCAGGGTTGGTTTCACCGGTGGTGTAATATGGTCGTAAG
In words: ITC. The settings on record: 20 mM Na+, 0.5 mM Mg2+; 10 mM Tris-HCl pH 7.4, 23 °C; 2000 μM ligand in syringe.

The subject of assay [15] is MA-Mutant (DNA, aptamer) CTTACGACGCAGGCATTTTGCCGGGTAACGAAGTTACTGTCGTAAG
The assay can be described thus: ITC. The note with it: 20 mM Na+, 5 mM Mg2+.

In assay [16] the test system is MA-41 (DNA, aptamer) GACTCAGGCATTTTGCCGGGTAACGAAGTTACTGTCGTAAG
The assay can be described thus: ITC. The note with it: 20 mM Na+, 5 mM Mg2+; 10 mM Tris-HCl pH 7.4, 23 °C; one-site model.

The mark [17] stands for this setting: 10 mM Tris-HCl pH 7.4, 23 °C, one-site model.
[18] abbreviates: 10 mM Tris-HCl pH 7.4, 23 °C, 1000 μM ligand in syringe.

Read-outs that look alike come from different tables or passages of the source.

Turning to `N[C@@H](Cc1ccc(O)cc1)C(=O)O`, the binding result in assay [1] was “no”. Consider `CCNC(C)C(=O)c1ccc2c(c1)OCO2` (racemic), for which the figures for the Kd in assay [2] and in assay [3] (setting [17]) were 254 ± 22 µM and 61 ± 2 µM, respectively. As to `CNC(C)C(=O)c1cccc(C)c1` (racemic), the dissociation constant Kd in [2] was > 1000 µM. Compound `NCCc1c[nH]c2ccc(O)cc12` yielded a Kd in assay [3] (setting [17]) of 55 ± 2 µM.

For `CN[C@@H](C)[C@H](O)c1ccccc1`, in assay [4], the dissociation constant Kd stood at 64 ± 3 µM.

Turning to `CNC(C)Cc1ccc2c(c1)OCO2` (stereo not drawn), the equilibrium dissociation constant (Kd) worked out at 24.5 ± 0.9 µM in assay [4] and 103 ± 4 µM in [3] (setting [17]). Besides, in assay [5], the binding result is recorded as “no”. Compound `CNC(C)C(=O)c1ccccc1` (racemic) showed a Kd in assay [2] of 654 ± 61 µM. In assay [6], `Nc1ncnc2c1ncn2[C@@H]1O[C@H](COP(=O)(O)OP(=O)(O)OP(=O)(O)O)[C@@H](O)[C@H]1O` returned a Kd1 of 4.1 ± 0.2 µM. Moreover, the binding result in [7] is on record as “yes”. In the case of `CCN(CC)CC(=O)Nc1c(C)cccc1C`, the Kd in [3] (setting [18]) was > 1000 µM. With `CNC(C)C(=O)c1ccc(F)cc1` (racemic), in assay [2], the dissociation constant Kd is > 1000 µM. In the case of `COC(=O)[C@H]1[C@@H](OC(=O)c2ccccc2)C[C@@H]2CC[C@H]1N2C`, the binding entry in assay [8] is “no”. On to `Nc1nc2c(ncn2[C@@H]2O[C@H](COP(=O)(O)OP(=O)(O)OP(=O)(O)O)[C@@H](O)[C@H]2O)c(=O)[nH]1`, for which the binding entry in [7] is “no”. For the compound `CNC(C)C(=O)c1ccc2c(c1)OCO2` (racemic), the dissociation constant (Kd) in assay [2] is 275 ± 17 µM. In the case of `CN[C@@H](C)Cc1ccccc1`, in assay [8], the binding entry was “no”. In addition, the equilibrium dissociation constant (Kd) in assay [3] was > 1000 µM. On to `CNC(C)C(=O)c1ccc(C)cc1` (racemic), for which the Kd turned out to be 15 ± 1.3 µM in assay [2] (10 mM Tris-HCl pH 7.4, 23 °C, one-site fit with half the racemate concentration) and 6.6 ± 0.7 µM in assay [12]. Also, the binding result in assay [9] was “yes”; in assay [10], “yes”; in assay [11] it was “no”; in assay [13], “yes”; in assay [14], “no”.

For `NCCc1ccc(O)c(O)c1`, the binding result in assay [1] was “yes”. The dissociation constant (Kd) in [2] (setting [18]) is > 1000 µM. With `O=c1ccn([C@@H]2O[C@H](COP(=O)(O)OP(=O)(O)OP(=O)(O)O)[C@@H](O)[C@H]2O)c(=O)[nH]1`, in assay [7], the binding entry is “no”. As for `Nc1ccn([C@@H]2O[C@H](COP(=O)(O)OP(=O)(O)OP(=O)(O)O)[C@@H](O)[C@H]2O)c(=O)n1`, the binding entry in assay [7] is “no”.

Turning to `CCCC(C(=O)c1ccc2c(c1)OCO2)N1CCCC1` (racemic), the binding result in assay [15] is recorded as “no”; in [8] it was “yes”. In addition, the Kd in assay [16] worked out at 24.8 ± 0.7 µM; in assay [3] (setting [17]), 18.8 ± 1.4 µM. Take `CNC(C)C(=O)c1ccc(OC)cc1` (racemic): the dissociation constant (Kd) in assay [2] (10 mM Tris-HCl pH 7.4, 23 °C, 10-fold lower affinity than mephedrone, half racemate concentration) came to 146 ± 34 µM.

In assay [3] (setting [17]), `CN(C)CCCN1c2ccccc2Sc2ccc(Cl)cc21` showed a Kd of 0.6 ± 0.1 µM.

For the origin of these results see article PMC7672472 (2020).
